Measured values from patent US20070191449A1, “Use of Benzo-Heteroaryl Sulfamide Derivatives for the Treatment of Depression” (priority 2006, published 2007).

Tests used:
submissive rats = test: Dominant-Submissive Competition: Reduction of Submissive Behavior Model (RSBM); type: in vivo, Male Sprague Dawley rats
Procedure: Dominance and submissiveness, defined in a competition test and measured as the relative success of two food-restricted rats to gain access to a feeder, form a behavioral paradigm—the Dominant Submissive Relationship (DSR). This paradigm results in two models which are predictive of ability of test compounds (drugs) to treat mood disorders.
Test compounds are evaluated for either their ability to inhibit the dominant behavior of rats taking food at the expense of an opponent (reduction of dominant behavior model or RDBM) and thus their potential as treatments for mania; or for their ability to increase the competitive behavior of submissive rats losing such encounters (reduction of submissive behavior model or RSBM) and thus their potential as treatments for depression; (Malatynska, E., and Knapp, R. J., Neuroscience and Biobehavioral Review, 29 (2005) 715-737). […]
The basic testing apparatus consisted of two chambers connected with a tunnel only large enough to allow one rat to pass through at a time. […] During the five-minute daily sessions, time spent in the feeder zone by each rat was recorded by the video tracking software and saved into a text file.
The test began with a random assignment of rats into pairs. […] The time spent in the feeder zone by each animal was recorded. […]

[1] = Drug concentration in terminal plasma and brain of RSBM rats (LC-MS-MS); type: in vivo, Male Sprague Dawley rats; conditions: submissive rats treated with increasing doses (6, 30, 60 mg/kg p.o. BID)
Text: Rats were housed four per cage. Access to food was restricted to one hour per day after testing on Monday through Thursday. After testing on Friday, rats had free access to food until being fasted again on Sunday. At no time were the rats deprived of water. The food deprivation periods used had little effect on weight gain as the average weight of rats was about 300 g at the end of the study. At the conclusion of experiment rats were sacrificed by decapitation, the trunk blood and brains were collected for in vitro experiments and drug concentration measurements.
Terminal blood samples (0.5-1.0 mL) were collected post experiment into heparinized tubes. Blood samples were centrifuged for cell removal, and 200 μL of plasma supernatant was then transferred to a clean vial, placed on dry ice, and subsequently stored in a −80° C. freezer prior to analysis. Two hundred microliters of acetonitrile containing internal standard was added to 100 μL of plasma or brain tissue to precipitate proteins and/or tissue residues. Samples were centrifuged and supernatant removed for analysis by liquid chromatography-triple quadruple mass spectrometry (LC-MS-MS). […] Calibration standards were prepared in the range of 0.01 to 10 μM for quantitation. […]

Male NMRI mice = test: Mouse Tail Suspension In Vivo Assay; conditions: for Immobilization Time (sec); (mean ± SEM): single dose 30 min prior to tail suspension
Procedure: The tail suspension test (TST) is an acute test of anti-depressant activity.
Male NMRI mice (25-30 g; n=13-15 mice per dose) were given a single dose of vehicle (aqueous solution of 1 equivalent tartaric acid+0.45% NaCl+10% cyclodextrin, i.p.), imipramine (20 mg/kg, i.p. in an aqueous solution of 0.9% NaCl) or Compound #1 (at 5, 10, 20, 40 or 80 mg/kg, i.p.) 30 min prior to tail suspension. In this test, the mice were submitted to an unpleasant and inescapable situation (hanging by the tail) for 6 min. Once suspended, motor activity diminished rapidly and the mice became immobile. A compound was considered active as an antidepressant in this model, when there was a reduction in immobility time. Viewpoint video-tracking software was utilized to record immobility time.
Therefore, a compound which is not active in this model may nonetheless be active as an antidepressant.

Male C57BL/6 mice = test: Mouse Forced Swim Test; type: in vivo; conditions: not statistically significant (p=0.19)
Procedure: The forced swim test (FST) is an acute test of anti-depressant activity. Note that in this test, antidepressant-like compounds such as tricyclics, MAO inhibitors, SSRIs and others show activity, although the level of measured activity can vary with strain differences.
Male C57BL/6 mice (˜25 g; n=10 mice per dose) were given a single dose of vehicle (an aqueous solution of 1 equivalent tartaric acid+0.45% NaCl+10% cyclodextrin, s.c.), Compound #1 (at 5, 10, 20, 40 or 80 mg/kg, s.c.) or imipramine (10 mg/kg, i.p. in an aqueous solution of 0.9% NaCl) 30 min prior to entrance into the swim chamber. In this test, mice were placed in a water-filled cylinder in which they were unable to escape or touch the bottom of the chamber for 6 min. Once immersed in water, motor activity diminished rapidly and the mice became immobile. Viewpoint video-tracking software was utilized to record immobility time. Other common behaviors such as swimming and climbing activity were not measured in this study.

| Compound | statistical significance of the reduction of submissive behavior (submissive rats; after 17 days of treatment with 60 mg/kg, p<0.01) | reduction of submissive behavior (submissive rats; submissive rats treated p.o. BID at 6, 30 or 60 mg/kg) | exposure in plasma and brain [1] | Immobilization Time (sec); (mean ± SEM) (Male NMRI mice; 5 mpk i.p.) | Immobilization Time (sec); (mean ± SEM) (Male NMRI mice; 10 mpk i.p.) | Immobilization Time (sec); (mean ± SEM) (Male NMRI mice; 20 mpk i.p.) | Immobilization Time (sec); (mean ± SEM) (Male NMRI mice; 40 mpk i.p.) | Immobilization Time (sec); (mean ± SEM) (Male NMRI mice; 80 mpk i.p., increase resembled sedation (p=0.003)) | Immobilization Time (sec); (mean ± SEM) (Male NMRI mice; 80 mpk i.p., increase resembled sedation (p=0.003), listed as #1) | decrease in immobility time (Male NMRI mice; 20 mg/kg i.p. versus vehicle (71 sec), p=0.0004) | Immobilization Time (sec); (mean ± SEM) (Male NMRI mice; 20 mpk i.p., listed as imipramine) | decrease in immobility time (Male C57BL/6 mice; 10 mg/kg i.p. versus vehicle (152 sec)) | immobility time (Male C57BL/6 mice; 10 mg/kg i.p., vehicle=152 sec) |
| --- | --- | --- | --- | --- | --- | --- | --- | --- | --- | --- | --- | --- | --- |
| NS(=O)(=O)NCc1csc2ccccc12 [Compound #1, N-(benzorblthien-3-vimethyl)-sulfamide] | statistically significant | reduced submissive behavior in a dose-dependent manner | linear increase in exposure both in plasma and brain | 66.1 ± 10.1 s | 96.4 ± 12.4 s | 110.1 ± 15.8 s | 100.5 ± 13.9 s | 160 s | 160.4 ± 10.7 s |  |  |  |  |
| CN(C)CCCN1c2ccccc2CCc2ccccc21 [Imipramine, reference compound] |  |  |  |  |  | 18.0 ± 5.8 s |  |  |  | 75% | 18 s | 20% | 122 s |
